According to ChEMBL document CHEMBL6087433, “Discovery of ART0380, a Potent and Selective ATR Kinase Inhibitor Undergoing Phase 2 Clinical Studies for the Treatment of Advanced or Metastatic Solid Cancers” (J Med Chem, 2024):
Converted amounts (≈) assume the structure as drawn. The source made the active and inactive calls. No cut-off for these calls is given here.

Columns and labels:
[1] = biological target: T1, Cytochrome P450 3A4 (Homo sapiens, UniProt P08684)
[2] = in vivo; conditions: CD-1, mouse, po, 30 mg/kg
[3] = physchem; conditions: Simulated Gastric Fluid
[4] = in vivo; conditions: CD-1, mouse, po, 10 mg/kg
[5] = in vitro; conditions: human, human liver microsomes
[6] = in vivo; conditions: CD-1, mouse, iv, 1 mg/kg
[7] = in vivo; conditions: Beagle, dog, po, 10 mg/kg
[8] = biological target: Cytochrome P450 2D6 (Homo sapiens, UniProt P10635)
[9] = biological target: CYP3A4 (Homo sapiens, UniProt P08684); experiment: in vitro; conditions: human liver microsomes, probe midazolam
[10] = tested on: LoVo; experiment: cells; conditions: Homo sapiens
[11] = biological target: T1, Cytochrome P450 3A4; remark: listed apart in the source
[12] = in vivo; conditions: cynomolgus monkey, iv, 1 mg/kg
[13] = in vitro; conditions: cynomolgus monkey, plasma
[14] = in vitro; conditions: rat, hepatocytes
[15] = biological target: Cytochrome P450 2C9 (Homo sapiens, UniProt P11712)
[16] = in vitro; conditions: mouse, hepatocytes
[17] = biological target: T2, Cytochrome P450 2C8 (Homo sapiens, UniProt P10632)
T2 sequence (P10632 whole entry): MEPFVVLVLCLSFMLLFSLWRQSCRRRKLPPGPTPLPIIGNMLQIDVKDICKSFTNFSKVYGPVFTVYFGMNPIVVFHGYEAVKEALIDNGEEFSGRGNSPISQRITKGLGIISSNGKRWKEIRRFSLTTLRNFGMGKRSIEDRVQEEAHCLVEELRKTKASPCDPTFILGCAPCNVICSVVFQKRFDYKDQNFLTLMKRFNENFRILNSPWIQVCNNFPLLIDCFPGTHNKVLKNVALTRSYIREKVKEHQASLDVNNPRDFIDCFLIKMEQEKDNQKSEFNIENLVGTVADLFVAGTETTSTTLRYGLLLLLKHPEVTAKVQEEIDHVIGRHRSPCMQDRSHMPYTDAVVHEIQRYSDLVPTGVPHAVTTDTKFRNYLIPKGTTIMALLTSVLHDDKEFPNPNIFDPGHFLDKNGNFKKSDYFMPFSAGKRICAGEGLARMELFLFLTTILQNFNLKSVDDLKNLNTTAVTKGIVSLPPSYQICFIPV

[18] = biological target: Voltage-gated inwardly rectifying potassium channel KCNH2 (Homo sapiens, UniProt Q12809)
[19] = in vivo; conditions: CD-1, mouse, iv, 1 mg/kg; remark: listed apart in the source
[20] = in vivo; conditions: cynomolgus monkey, iv, 1 mg/kg; remark: listed apart in the source
[21] = in vivo; conditions: Sprague-Dawley, rat, po, 10 mg/kg
[22] = species on record: Mus musculus; conditions: CD-1, dose 30-50 mg/kg, route po, time 4.0 hrs
[23] = in vitro; conditions: rat, plasma
[24] = in vitro; conditions: human, hepatocytes
[25] = in vivo; conditions: Sprague-Dawley, rat, iv, 1 mg/kg
[26] = in vivo; conditions: beagle, dog, iv, 1 mg/kg
[27] = in vivo; conditions: Sprague-Dawley, rat, po, 10 mg/kg; remark: listed apart in the source
[28] = in vitro; conditions: mouse, plasma
[29] = in vivo; conditions: CD-1, mouse, po, 30 mg/kg; remark: listed apart in the source
[30] = biological target: Phosphatidylinositol 4,5-bisphosphate 3-kinase catalytic subunit beta isoform (Homo sapiens, UniProt P42338)
[31] = in vitro; conditions: human, Caco-2
[32] = physchem; conditions: Fasted State Simulated Intestinal Fluid
[33] = biological target: T3, Serine/threonine-protein kinase mTOR (Homo sapiens, UniProt P42345)
[34] = biological target: T3, Serine/threonine-protein kinase mTOR; remark: listed apart in the source
[35] = in vitro; conditions: dog, plasma
[36] = in vitro; conditions: human, plasma
[37] = in vivo; conditions: Sprague-Dawley, rat, po, 10 mg/kg; remark: listed apart in the source
[38] = in vivo; conditions: cynomolgus monkey, po, 10 mg/kg
[39] = biological target: T4, Cytochrome P450 2B6 (Homo sapiens, UniProt P20813)
T4 sequence (P20813 whole entry): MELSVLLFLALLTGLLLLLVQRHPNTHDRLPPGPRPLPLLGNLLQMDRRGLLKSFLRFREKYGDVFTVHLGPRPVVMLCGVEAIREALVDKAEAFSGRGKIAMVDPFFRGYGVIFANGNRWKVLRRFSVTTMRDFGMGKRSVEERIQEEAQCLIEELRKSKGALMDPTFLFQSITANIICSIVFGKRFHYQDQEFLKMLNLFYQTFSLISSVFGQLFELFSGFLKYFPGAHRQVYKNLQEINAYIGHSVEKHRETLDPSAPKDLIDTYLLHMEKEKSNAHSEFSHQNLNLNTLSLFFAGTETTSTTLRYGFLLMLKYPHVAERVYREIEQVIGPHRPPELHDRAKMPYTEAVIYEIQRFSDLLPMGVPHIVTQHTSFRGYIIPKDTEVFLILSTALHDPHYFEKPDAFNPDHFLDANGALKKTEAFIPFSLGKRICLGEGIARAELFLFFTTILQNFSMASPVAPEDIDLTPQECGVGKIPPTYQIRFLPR

[40] = in vivo; conditions: CD-1, mouse, po, 10 mg/kg; remark: listed apart in the source
[41] = in vitro; conditions: cynomolgus monkey, hepatocytes

T1 sequence (P08684 whole entry): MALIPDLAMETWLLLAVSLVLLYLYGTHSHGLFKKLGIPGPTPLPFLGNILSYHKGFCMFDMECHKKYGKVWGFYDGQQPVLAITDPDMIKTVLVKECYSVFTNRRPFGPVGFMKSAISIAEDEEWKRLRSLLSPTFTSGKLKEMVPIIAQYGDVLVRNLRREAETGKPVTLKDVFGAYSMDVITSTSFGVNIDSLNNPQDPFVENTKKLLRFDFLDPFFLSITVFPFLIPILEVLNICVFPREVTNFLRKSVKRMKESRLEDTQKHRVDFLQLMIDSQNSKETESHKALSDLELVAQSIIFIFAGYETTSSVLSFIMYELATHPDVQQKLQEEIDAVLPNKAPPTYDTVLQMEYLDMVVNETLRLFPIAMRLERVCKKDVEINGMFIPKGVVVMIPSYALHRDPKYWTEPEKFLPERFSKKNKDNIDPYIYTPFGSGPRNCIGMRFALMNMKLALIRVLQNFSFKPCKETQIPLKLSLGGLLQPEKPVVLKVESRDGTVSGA
Voltage-gated inwardly rectifying potassium channel KCNH2, sequence (Q12809 whole entry): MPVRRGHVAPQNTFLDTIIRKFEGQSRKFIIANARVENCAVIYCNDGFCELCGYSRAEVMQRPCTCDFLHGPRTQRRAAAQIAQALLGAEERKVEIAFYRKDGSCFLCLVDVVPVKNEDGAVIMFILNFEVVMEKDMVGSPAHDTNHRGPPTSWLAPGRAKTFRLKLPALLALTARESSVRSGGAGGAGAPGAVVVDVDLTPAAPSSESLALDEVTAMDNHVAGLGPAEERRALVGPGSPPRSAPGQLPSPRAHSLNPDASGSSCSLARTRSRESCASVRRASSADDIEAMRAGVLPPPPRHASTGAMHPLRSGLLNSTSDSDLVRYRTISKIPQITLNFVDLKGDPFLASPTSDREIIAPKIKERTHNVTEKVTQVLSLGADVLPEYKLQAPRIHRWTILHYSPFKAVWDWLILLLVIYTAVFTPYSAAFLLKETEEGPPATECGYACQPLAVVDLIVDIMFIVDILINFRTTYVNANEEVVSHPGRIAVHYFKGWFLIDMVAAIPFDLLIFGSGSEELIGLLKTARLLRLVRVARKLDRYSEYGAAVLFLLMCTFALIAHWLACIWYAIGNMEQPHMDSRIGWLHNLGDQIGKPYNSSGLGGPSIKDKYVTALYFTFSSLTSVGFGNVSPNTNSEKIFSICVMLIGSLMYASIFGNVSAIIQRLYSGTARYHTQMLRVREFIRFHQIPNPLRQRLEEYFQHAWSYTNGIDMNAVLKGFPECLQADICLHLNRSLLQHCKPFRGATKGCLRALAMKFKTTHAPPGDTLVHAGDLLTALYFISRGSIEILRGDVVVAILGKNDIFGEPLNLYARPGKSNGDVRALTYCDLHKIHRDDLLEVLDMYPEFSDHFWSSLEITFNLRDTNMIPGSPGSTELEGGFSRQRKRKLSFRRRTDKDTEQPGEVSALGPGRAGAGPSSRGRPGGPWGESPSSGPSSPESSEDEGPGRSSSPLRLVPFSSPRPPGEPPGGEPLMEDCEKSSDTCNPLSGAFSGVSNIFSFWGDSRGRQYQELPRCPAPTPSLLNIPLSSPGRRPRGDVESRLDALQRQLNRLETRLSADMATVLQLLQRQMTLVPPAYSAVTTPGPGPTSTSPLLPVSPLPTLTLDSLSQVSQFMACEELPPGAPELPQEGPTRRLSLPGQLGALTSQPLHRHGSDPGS
Cytochrome P450 2C9, sequence (P11712 whole entry): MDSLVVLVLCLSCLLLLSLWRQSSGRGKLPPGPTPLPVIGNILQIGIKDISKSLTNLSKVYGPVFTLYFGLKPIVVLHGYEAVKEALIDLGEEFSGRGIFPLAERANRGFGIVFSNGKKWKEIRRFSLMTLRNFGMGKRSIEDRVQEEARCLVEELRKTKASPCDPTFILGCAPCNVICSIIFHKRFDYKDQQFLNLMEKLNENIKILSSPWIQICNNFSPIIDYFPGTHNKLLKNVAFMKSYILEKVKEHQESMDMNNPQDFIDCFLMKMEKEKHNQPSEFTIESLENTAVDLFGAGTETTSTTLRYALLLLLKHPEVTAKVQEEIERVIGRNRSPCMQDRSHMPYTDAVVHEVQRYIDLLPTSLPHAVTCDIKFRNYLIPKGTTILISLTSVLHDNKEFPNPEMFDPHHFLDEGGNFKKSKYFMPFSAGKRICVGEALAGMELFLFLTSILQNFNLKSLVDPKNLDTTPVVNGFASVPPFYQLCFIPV
Phosphatidylinositol 4,5-bisphosphate 3-kinase catalytic subunit beta isoform, sequence (P42338 whole entry, canonical isoform): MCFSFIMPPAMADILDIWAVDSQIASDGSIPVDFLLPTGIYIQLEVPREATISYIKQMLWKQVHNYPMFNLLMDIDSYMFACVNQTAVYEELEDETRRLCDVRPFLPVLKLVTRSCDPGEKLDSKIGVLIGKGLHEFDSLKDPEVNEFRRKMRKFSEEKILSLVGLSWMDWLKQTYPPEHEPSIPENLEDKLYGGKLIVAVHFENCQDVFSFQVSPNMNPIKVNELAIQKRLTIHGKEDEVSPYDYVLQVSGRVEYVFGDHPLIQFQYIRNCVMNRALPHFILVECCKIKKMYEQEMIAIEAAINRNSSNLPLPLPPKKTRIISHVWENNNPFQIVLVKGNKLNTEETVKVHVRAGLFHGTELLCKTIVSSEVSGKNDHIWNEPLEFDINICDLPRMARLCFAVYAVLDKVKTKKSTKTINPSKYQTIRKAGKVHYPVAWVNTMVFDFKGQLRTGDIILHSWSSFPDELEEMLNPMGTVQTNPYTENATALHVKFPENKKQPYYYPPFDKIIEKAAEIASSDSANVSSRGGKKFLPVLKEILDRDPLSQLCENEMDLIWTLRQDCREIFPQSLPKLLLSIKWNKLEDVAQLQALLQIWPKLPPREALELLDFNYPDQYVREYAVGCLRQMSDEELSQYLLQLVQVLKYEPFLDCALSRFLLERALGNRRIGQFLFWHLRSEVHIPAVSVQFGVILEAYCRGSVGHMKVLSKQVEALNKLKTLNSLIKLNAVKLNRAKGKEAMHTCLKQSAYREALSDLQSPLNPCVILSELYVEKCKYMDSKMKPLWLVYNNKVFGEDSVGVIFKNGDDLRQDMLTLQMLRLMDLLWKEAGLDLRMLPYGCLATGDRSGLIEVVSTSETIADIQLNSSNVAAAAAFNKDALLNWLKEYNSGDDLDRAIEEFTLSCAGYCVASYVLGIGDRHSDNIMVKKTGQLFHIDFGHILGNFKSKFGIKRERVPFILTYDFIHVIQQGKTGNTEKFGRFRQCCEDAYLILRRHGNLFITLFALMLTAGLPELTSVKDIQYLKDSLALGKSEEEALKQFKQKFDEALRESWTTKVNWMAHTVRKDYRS
CYP3A4, sequence (P08684 whole entry): as the sequence (P08684 whole entry) above
Cytochrome P450 2D6, sequence (P10635 whole entry): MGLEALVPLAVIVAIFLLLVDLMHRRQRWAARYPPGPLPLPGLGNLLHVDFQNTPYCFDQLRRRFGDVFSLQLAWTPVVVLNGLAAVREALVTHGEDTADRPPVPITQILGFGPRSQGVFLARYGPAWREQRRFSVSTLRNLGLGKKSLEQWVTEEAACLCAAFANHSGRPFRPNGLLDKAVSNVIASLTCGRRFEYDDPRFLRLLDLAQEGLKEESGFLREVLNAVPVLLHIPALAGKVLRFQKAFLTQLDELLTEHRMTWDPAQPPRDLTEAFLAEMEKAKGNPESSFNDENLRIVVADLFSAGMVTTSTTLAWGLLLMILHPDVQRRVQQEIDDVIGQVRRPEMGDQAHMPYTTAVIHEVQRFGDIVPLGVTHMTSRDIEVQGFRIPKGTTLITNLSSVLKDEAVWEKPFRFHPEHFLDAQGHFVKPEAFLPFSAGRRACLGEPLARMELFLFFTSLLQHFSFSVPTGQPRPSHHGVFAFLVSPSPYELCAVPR

- IC50 [1]: > 10 µM
- Tmax [2]: 15 min
- solubility thermodynamic [3]: > 13000 µg/mL
- bioavailability [4]: 77%
- CLint scaled at 0.75 h, 1 µM [5]: 2.3 mL/min/kg
- half-life [6]: 168 min
- Tmax [7]: 34.8 min
- IC50 [8]: > 10 µM
- inhibition at 0.5 h, 10 µM [9]: 0.96%
- EC50 [10]: 1.15 µM
- IC50 [11]: > 10 µM
- half-life [12]: 78 min
- fraction unbound at 5 h, 5 µM [13]: 0.54
- CLint scaled [14]: 29 mL/min/kg
- IC50 [15]: > 10 µM
- CLint scaled [16]: 22 mL/min/kg
- IC50 [17]: > 10 µM
- Vd [19]: 4.9 L/kg
- Vd [20]: 2 L/kg
- Cmax [21]: 5.56 µM
- fraction unbound at 5 h, 5 µM [23]: 0.48
- CLint scaled [24]: 8 mL/min/kg
- Vd [25]: 3.9 L/kg
- half-life [26]: 186 min
- bioavailability [27]: 58%
- fraction unbound at 5 h, 5 µM [28]: 0.33
- Cmax [29]: 16.1 µM
- IC50 [30]: > 50 µM
- Papp A→B at 10 µM [31]: 17 ×10⁻⁶ cm/s
- solubility thermodynamic [32]: 1600 µg/mL (≈ 4.12 mM)
- IC50 [33]: 0.968 µM
- IC50 [34]: 8.38 µM
- fraction unbound at 5 h, 5 µM [35]: 0.55
- fraction unbound at 5 h, 5 µM [36]: 0.45
- Tmax [37]: 11.4 min
- Cmax [38]: 0.04 µM
- IC50 [39]: > 10 µM
- Cmax [40]: 3.16 µM
- CLint scaled [41]: 10 mL/min/kg
SMILES: C[C@@H]1COCCN1c1cc(N=[S@@](C)(=O)C2CC2)nc(-c2ccnc(N)c2)n1
- IC50 [18]: > 10 µM
- inhibition [22]: Active
